Assay [1] concerns Escherichia coli K-12. The assay is described as follows: Inhibition of acrAB AcrAB-TolC-mediated Nile Red efflux in marR mutant containing Escherichia coli K-12 3-AG102 overexpressing acrAB AcrAB-TolC assessed as time needed for 50% efflux after energization with 50 mM glucose at 200 uM by spectrofluorometric assay.
In assay [2] the test system is Escherichia coli K-12. Kind of assay: Inhibition of acrAB AcrAB-TolC-mediated Nile Red efflux in Escherichia coli K-12 3-AG100 overexpressing acrAB AcrAB-TolC assessed as time needed for 50% efflux after energization with 50 mM glucose by spectrofluorometric assay.
Assay [3] deals with Escherichia coli K-12. Kind of assay: Inhibition of acrAB AcrAB-TolC-mediated Nile Red efflux in Escherichia coli K-12 3-AG100 overexpressing acrAB AcrAB-TolC assessed as time needed for 50% efflux after energization with 50 mM glucose at 800 uM by spectrofluorometric assay.
For assay [4], the system named is Escherichia coli K-12. The assay is described as follows: Inhibition of acrAB AcrAB-TolC in Escherichia coli K-12 3-AG100 overexpressing acrAB AcrAB-TolC assessed as [3H]TMG accumulation at 800 uM by scintillation counter method.
Assay [5] has as its system Escherichia coli K-12. The assay is described as follows: Inhibition of acrAB AcrAB-TolC-mediated Nile Red efflux in marR mutant containing Escherichia coli K-12 3-AG102 overexpressing acrAB AcrAB-TolC assessed as time needed for 50% efflux after energization with 50 mM glucose at 1000 uM by spectrofluorometric assay.
Assay [6] has as its system Escherichia coli K-12. Kind of assay: Inhibition of acrAB AcrAB-TolC in Escherichia coli K-12 3-AG100 overexpressing acrAB AcrAB-TolC assessed as [3H]TMG accumulation at 100 uM by scintillation counter method.
In assay [7] the test system is Escherichia coli K-12. Kind of assay: Inhibition of acrAB AcrAB-TolC-mediated Nile Red efflux in Escherichia coli K-12 3-AG100 overexpressing acrAB AcrAB-TolC assessed as time needed for 50% efflux after energization with 50 mM glucose at 100 uM by spectrofluorometric assay.
In assay [8] the test system is Escherichia coli K-12. Kind of assay: Inhibition of acrAB AcrAB-TolC in Escherichia coli K-12 3-AG100 overexpressing acrAB AcrAB-TolC assessed as [3H]TMG accumulation at 200 uM by scintillation counter method.
Assay [9] concerns Escherichia coli K-12. The assay is described as follows: Inhibition of acrAB AcrAB-TolC-mediated Nile Red efflux in Escherichia coli K-12 3-AG100 overexpressing acrAB AcrAB-TolC assessed as time needed for 50% efflux after energization with 50 mM glucose upto 2 mM by spectrofluorometric assay.

This is an account of results in ChEMBL document CHEMBL1671720, “Optimized Nile Red efflux assay of AcrAB-TolC multidrug efflux system shows competition between substrates” (Antimicrob Agents Chemother, 2010).

Activity calls are given as the source filed them. The calls are words filed in the database; no cut-off is given here. Residues, ends and D or L forms follow the SMILES beside them. *: point of attachment. βNA = c1ccc2cc(N*)ccc2c1

For the compound `c1ccc2c(CN3CCNCC3)cccc2c1`, the TIME in the assay with Escherichia coli K-12 [1] was 0.0278 h; with Escherichia coli K-12 [5], over 0.0556 h. Also, the inhibition entry in the assay with Escherichia coli K-12 [2] is “Dose-dependent effect”; in the assay on Escherichia coli K-12 [4], 53%. In the assay with Escherichia coli K-12 [3], the inhibition result was “Active”.
For `N=C(N)NCCC[C@H](NC(=O)[C@@H](N)Cc1ccccc1)C(=O)Nc1ccc2ccccc2c1` (H-Phe-Arg-βNA), the inhibition with Escherichia coli K-12 [6] was 60%; with Escherichia coli K-12 [2], “Dose-dependent effect”. In the assay with Escherichia coli K-12 [7], the inhibition result was “Active”.
Take `CN(C)[C@@H]1C(O)=C(C(N)=O)C(=O)[C@@]2(O)C(O)=C3C(=O)c4c(O)ccc(Cl)c4[C@@](C)(O)[C@H]3C[C@@H]12`: the TIME in the assay on Escherichia coli K-12 [1] was 0.0556 h; in the assay with Escherichia coli K-12 [5], over 0.0556 h. The inhibition with Escherichia coli K-12 [8] was 14%.
With `CN(C)[C@@H]1C(O)=C(C(N)=O)C(=O)[C@@]2(O)C(O)=C3C(=O)c4c(O)cccc4[C@@](C)(O)[C@H]3C[C@@H]12`, the TIME with Escherichia coli K-12 [1] is 0.025 h; with Escherichia coli K-12 [5], over 0.0556 h. In the assay on Escherichia coli K-12 [4], the inhibition stood at 27%.
With `CN(C)c1ccc(O)c2c1C[C@H]1C[C@H]3[C@H](N(C)C)C(O)=C(C(N)=O)C(=O)[C@@]3(O)C(O)=C1C2=O`, the TIME in the assay with Escherichia coli K-12 [1] and in the assay on Escherichia coli K-12 [5] was over 0.0556 h in each case. In addition, in the assay on Escherichia coli K-12 [8], the inhibition worked out at 45%.
As for `COc1cccc2c1C(=O)c1c(O)c3c(c(O)c1C2=O)C[C@@](O)(C(=O)CO)C[C@@H]3O[C@H]1C[C@H](N)[C@H](O)[C@H](C)O1`, the inhibition with Escherichia coli K-12 [6] amounted to 78%. In addition, the TIME in the assay on Escherichia coli K-12 [1] and in the assay on Escherichia coli K-12 [5] was over 0.0556 h each time.
With `CC(=O)NC[C@H]1CN(c2ccc(N3CCOCC3)c(F)c2)C(=O)O1`, the inhibition result in the assay on Escherichia coli K-12 [9] is “inactive”.
Take `C[C@H]1c2cccc(O)c2C(=O)C2=C(O)[C@]3(O)C(=O)C(C(N)=O)=C(O)[C@@H](N(C)C)[C@@H]3[C@@H](O)[C@@H]21`: the TIME in the assay on Escherichia coli K-12 [1] was 0.0472 h; in the assay with Escherichia coli K-12 [5] it was over 0.0556 h. In addition, the inhibition in the assay with Escherichia coli K-12 [4] came to 44%.
Consider `N#CC(C#N)=NNc1cccc(Cl)c1`, for which, in the assay with Escherichia coli K-12 [8], the inhibition came out at 4.5%.
As to `CC[C@H]1OC(=O)[C@H](C)[C@@H](O[C@H]2C[C@@](C)(OC)[C@@H](O)[C@H](C)O2)[C@H](C)[C@@H](O[C@@H]2O[C@H](C)C[C@H](N(C)C)[C@H]2O)[C@](C)(O)C[C@@H](C)C(=O)[C@H](C)[C@@H](O)[C@]1(C)O`, in the assay on Escherichia coli K-12 [9], the inhibition result is “inactive”.
As for `c1ccc([P+](c2ccccc2)(c2ccccc2)c2ccccc2)cc1`, the values for the TIME in the assay on Escherichia coli K-12 [1] and with Escherichia coli K-12 [5] were 0.0292 h and over 0.0556 h, respectively. In the assay with Escherichia coli K-12 [4], the inhibition is 97%.
